Measurements reported in PubChem BioAssay AID2060627 (Molecular Pharmacology Branch, DTP, NCI, 2025).

Tested on: 156681-154-R-J1-PDC complex spheroid viability
Assay: Anticancer human tumor 156681-154-R-J1-PDC patient-derived melanoma cell line growth inhibition [CLK]
Conditions: for IC50: curve of first compound; for viability, T/C: stronger effect = lower value
Procedure, shortened: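 Multi-cell-type spheroids combined patient-derived tumor cells with HUVEC endothelial cells and human mesenchymal stem cells. Paired agents were dosed in half-log steps down from about clinical Cmax, or from 10 microM where Cmax was unknown.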
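Further: spheroids exposed to the agents for seven days.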
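Wherever viability, T/C is given: 100% = DMSO vehicle control viability.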

Work on `O=C(c1cc(Cc2n[nH]c(=O)c3ccccc23)ccc1F)N1CCN(C(=O)C2CC2)CC1` + CN1CCN(c2cc(C(=O)Nc3cc4cc(-c5cnn(C)c5)ccc4cn3)ccn2)CC1 yielded an IC50 (second compound 0.0316 µM) of over 10000 nM, an IC50 (second compound 0.1 µM) of over 10000 nM and an IC50 (second compound 0.316 µM) of under 31.6 nM. For the same molecule, the IC50 (second compound 1 µM) was under 31.6 nM, the IC50 (second compound 3.16 µM) was under 31.6 nM and the IC50 (second compound 10 µM) was under 31.6 nM. For the same molecule, the viability, T/C (second compound 0.0316 µM, first compound 0.0316 µM) was 104%, the viability, T/C (second compound 0.0316 µM, first compound 0.1 µM) was 110% and the viability, T/C (second compound 0.0316 µM, first compound 0.316 µM) was 89.1%. For the same molecule, the viability, T/C (second compound 0.0316 µM, first compound 1 µM) was 76.5%, the viability, T/C (second compound 0.0316 µM, first compound 3.16 µM) was 75.3% and the viability, T/C (second compound 0.0316 µM, first compound 10 µM) was 64.6%. The viability, T/C (second compound 0.1 µM, first compound 0.0316 µM) was 87.9%, the viability, T/C (second compound 0.1 µM, first compound 0.1 µM) was 74.5% and the viability, T/C (second compound 0.1 µM, first compound 0.316 µM) was 70.3%. For the same molecule, the viability, T/C (second compound 0.1 µM, first compound 1 µM) was 74.4%, the viability, T/C (second compound 0.1 µM, first compound 3.16 µM) was 76.4% and the viability, T/C (second compound 0.1 µM, first compound 10 µM) was 55.7%. The viability, T/C (second compound 0.316 µM, first compound 0.0316 µM) was 19.1%, the viability, T/C (second compound 0.316 µM, first compound 0.1 µM) was 19.4% and the viability, T/C (second compound 0.316 µM, first compound 0.316 µM) was 20.1%. The viability, T/C (second compound 0.316 µM, first compound 1 µM) was 18%, the viability, T/C (second compound 0.316 µM, first compound 3.16 µM) was 17.7% and the viability, T/C (second compound 0.316 µM, first compound 10 µM) was 21.2%. For the same molecule, the viability, T/C (second compound 1 µM, first compound 0.0316 µM) was 0.14%, the viability, T/C (second compound 1 µM, first compound 0.1 µM) was 1.63% and the viability, T/C (second compound 1 µM, first compound 0.316 µM) was 0.21%. It also gave a viability, T/C (second compound 1 µM, first compound 1 µM) of 0.5%, a viability, T/C (second compound 1 µM, first compound 3.16 µM) of 0.68% and a viability, T/C (second compound 1 µM, first compound 10 µM) of 1.61%. It also gave a viability, T/C (second compound 3.16 µM, first compound 0.0316 µM) of 0.08%, a viability, T/C (second compound 3.16 µM, first compound 0.1 µM) of 1.74% and a viability, T/C (second compound 3.16 µM, first compound 0.316 µM) of 1.83%. It also gave a viability, T/C (second compound 3.16 µM, first compound 1 µM) of 0.06%, a viability, T/C (second compound 3.16 µM, first compound 3.16 µM) of 0.24% and a viability, T/C (second compound 3.16 µM, first compound 10 µM) of 0.71%. For the same molecule, the viability, T/C (second compound 10 µM, first compound 0.0316 µM) was 0.1%, the viability, T/C (second compound 10 µM, first compound 0.1 µM) was 2.76% and the viability, T/C (second compound 10 µM, first compound 0.316 µM) was 1.36%. The viability, T/C (second compound 10 µM, first compound 1 µM) was 2.17%, the viability, T/C (second compound 10 µM, first compound 3.16 µM) was 1.6% and the viability, T/C (second compound 10 µM, first compound 10 µM) was 0.56%.
